# Counter-ions that a name gives are not always drawn. Like-named read-outs stand apart in the source and are kept apart here.
# Key:
# pentosidine-like AGEs [1] = assay: Inhibition of advanced glycation end products (AGEs) formation, BSA/D-ribose fluorescence assay; format: biochemical; conditions: for IC50: BSA 10 mg/mL, D-ribose 0.5 M, 37 °C, 24 h
# Method: The anti-AGE assay was carried out following the methodology previously reported by Séro et al.. Briefly, the samples (1 µM to 3 mM) were incubated with D-ribose (0.5 M) and bovine serum albumin (BSA, 10 mg/mL) in a Na-phosphate buffer (50 mM pH 7.4); the solutions were incubated in black microtiter plates (96 wells) at 37 °C for 24 h in a closed system before AGE fluorescence measurement. Both vesperlysines-like (λexc370 nm; λem440 nm) and pentosidine-like (λexc335 nm; λem385 nm) AGE fluorescence were measured using a microplate spectrofluorometer Infinite M200 (Tecan, Lyon, France). To avoid quenching phenomena, the fluorescence resulting from the incubation in the same conditions of BSA (10 mg/mL) and the tested extract (1 µM to 3 mM) was subtracted from each measurement. The negative control, i.e., 100% inhibition of AGEs formation, consisted of wells with only BSA. A control, i.e., no inhibition of AGEs formation, consisted of wells with BSA (10 mg/mL) and D-ribose (0.5 M). The final volume assay was 100 µL. The percentage of AGE formation was calculated as follows for each extract concentration: AGEs (%) = (fluorescence intensity [sample]−fluorescence [blank of sample]/fluorescence intensity [control]−fluorescence [blank of control]) × 100.
# Dose-effect curves were best fitted with a sigmoidal dose-response equation [four parameters logistic model: bottom and top plateaus, the EC50, and the slope factor (Hill’s slope)] using Sigma Plot 14.0 software, which enabled calculation of the IC50 values. The acceptance criteria were established by the correlation coefficient (r²) > 0.97. Results were compared with those of reference products, aminoguanidine and rutin.
# HaCaT keratinocytes = assay: Wound scratch assay; format: cell-based, human; conditions: 1 µM and 10 µM, after 24 h, p < 0.05 vs untreated control
# Method: HaCaT keratinocytes were provided by Prof. Dr. Norbert E. Fusenig (DKFZ, Heidelberg, Germany) and cultivated in a DMEM medium, supplemented with FCS (10%), penicillin/streptomycin solution (1%), and non-essential amino acids (1%) (PAA, Pasching, Austria). HaCaT keratinocytes were cultivated at 37 °C, 5% CO2.
# The evaluation of 4 different MAAs (compounds 1, 2, 4, and 8) on the migration of HaCaT cells was determined as described by Balekar et al.. HaCaT cells were plated into a 12-well plate at a concentration of 1 × 10^5 cells containing Dulbecco’s modified Eagle’s medium culture medium (DMEM) supplemented with 10% fetal calf serum (FCS) and incubated at 37 °C in a humidified 5% CO2 atmosphere until confluence has been reached. After attachment of the cells to the plate, medium was removed and the adherent cell layer was scratched with a sterile pipette tip. Cellular debris was removed by washing off with PBS (2 × 1 mL). Subsequently, the cells were treated with DMEM supplemented with 10% FCS containing the individual MAA test compounds at the concentrations of (10 µM to 1 µM). Control cells received only fresh DMEM +10% FCS, cells used as the positive control were treated with fresh DMEM + 20% FCS. Following, the cell cultures were incubated at […] in a humidified 5% CO2 atmosphere. Finally, the area of each scratch was determined by quantitative imaging at time 0 (just after scratching cell monolayers) and after 24 h treatment with the compounds (Leica DFC300, Wetzlar Germany; 40× magnification). The captured images were then analyzed using Image J software.
# The migration rate can be expressed as the percentage of area reduction or wound closure:(2) Wound closure %=100 [Area (t0)−Area( t24)/Area (t0)]
# Statistical analysis: The data were analyzed in three independent experiments and were expressed as mean ± SEM. One-way ANOVA, followed by an unpaired t-test to compare control group and treated group was performed. P-value of ≤ 0.05 was considered as statistically significant.
# collagenase type V [2] = target: collagenase type V; design: method as in Hartmann et al. [18]; conditions: collagenase results previously published; 95% confidence interval in brackets; ref Hartmann et al. [18]; read-out: Collagenase Inhibition IC50 µM (CI 95 ±); cited from earlier work
# [3] = system: UV-A induced MMPs such as MMP-1 and elastase; design: method as in Ryu et al. [20]; conditions: concentrations at 40 µM; ref Ryu et al. [20]; cited from earlier work
# collagenase type V [4] = assay: Collagenase inhibition assay (spectrofluorometric); format: biochemical; conditions: for IC50: collagenase type V, MMP-2 fluorogenic substrate, 1% DMSO, 95% confidence interval in brackets, read-out: Collagenase Inhibition IC50 µM (CI 95 ±)
# Method: The assay was carried out according to a previously published protocol by Hartmann et al.. All required reagents for the assay were purchased from Sigma Aldrich. Both enzyme (collagenase type V; C-9263) and substrate (SCP0192 MMP-2 substrate, Sigma Aldrich) were dissolved in the reagent buffer (Tris–HCl; 10 mM pH 7.3) and diluted from stock solutions to 100 μg/mL (initial) enzyme concentration and 55.55 μg/mL (initial) substrate concentration prior to use. Test samples and standard inhibitor phosphoramidon disodium salt used as positive control were dissolved in H2O/DMSO, always maintaining a final DMSO concentration of 1% in each well. The final reaction volume of 100 μL was composed of 25 μL buffer solution, and 25 μL sample/positive controls which were added first followed by 25 μL enzyme. This mixture was incubated for 10 min at 37 °C. Finally, 25 µL of substrate were added to initiate the readout reaction. The substrate which carries a fluorogenic residue (7-methoxycoumarin-4-yl acetic acid) is continuously dissipated by the enzyme collagenase. Measurements are taken after 30 min at an excitation wavelength of λ = 320 nm and λ = 400 nm emission wavelengths in a 96-well microplate format using an Infinite F 200 pro microplate reader equipped with filter-based technology (Tecan, Männedorf, Switzerland). An untreated control group containing 1% DMSO without sample was set to 100% enzyme activity. Blank wells without enzyme were measured accordingly and subtracted from the fluorescent units of each well. Two positive controls were used. First, the well-established phosphoramidon disodium salt and second, to include natural product based inhibitors, rutin and EGCG were used. Measurements were performed in triplicates using 96 well plates, and each substance was measured in three independent experiments. […] IC50 values were calculated by fitting data (log (Inhibitor) vs. response–variable slope) using GraphPad Prism (GraphPad Software, San Diego, CA, USA).
# Statistics: The data were analyzed at least in three independent experiments and were expressed as mean ± SEM. A Shapiro Wilk normality test was performed to confirm the Gaussian distribution of the data. One-way ANOVA, followed by a Dunett’s multiple comparison test in GraphpadPrism 5 were performed to clarify statistical significance. p-Value of ≤ 0.05 was considered statistically significant.
# collagenase = conditions: cited from earlier work
# [5] = system: hen egg white lysozyme (HEWL); conditions: read-out: Inhibition of glycation-dependent cross-linking of HEWL, IC50; literature finding, reference not given; cited from earlier work
# pentosidine-like AGEs [6] = conditions: cited from earlier work
# [7] = read-out: Collagenase inhibition IC50
# [8] = concentration range 1 to 350 µM
SMILES,IC50 (pentosidine-like AGEs [1]) [µM],IC50 (collagenase type V [4]) [µM],other results
"N=C(N)NN [Aminoguanidine, reference compound]",1400,–,–
"COC1=C(N[C@@H](CO)C(=O)O)C[C@](O)(CO)CC1=NCC(=O)O [Compound 1, Shinorine]",103,–,Migration / wound closure in scratch assay (words) (HaCaT keratinocytes): significant migration and narrowing of the scratch area; IC50 (collagenase type V [2]): 104 µM
"COC1=C(N[C@H](C(=O)O)[C@@H](C)O)C[C@](O)(CO)CC1=NCC(=O)O [Compound 2, porphyra-334]",90,–,Migration / wound closure in scratch assay (words) (HaCaT keratinocytes): significant migration and narrowing of the scratch area; IC50 (collagenase type V [2]): 106 µM; Inhibition of UV-A induced MMPs such as MMP-1 and elastase [3]: concentration-dependent inhibition; Procollagen production [3]: increase in procollagen production
"CNC1=C(OC)C(=N[C@H](C(=O)O)[C@@H](C)O)C[C@](O)(CO)C1 [Compound 3, mycosporine-methylamine-threonine]",150,250,–
"COC1=C(N[C@@H](C)C(=O)O)C[C@](O)(CO)CC1=NCC(=O)O [Compound 4, mycosporine-alanine-glycine]",75,158,Migration / wound closure in scratch assay (words) (HaCaT keratinocytes): significant migration and narrowing of the scratch area
"COC1=C(NC[C@@H](C)O)C[C@](O)(CO)CC1=NCC(=O)O [Compound 5, aplysiapalythine A]",400,80.7,–
"COC1=C(NCCO)C[C@](O)(CO)CC1=NCC(=O)O [Compound 6, asterina-330]",125,70.9,–
"COC1=C(N[C@H](C(=O)O)[C@@H](C)O)C[C@](O)(CO)CC1=N[C@@H](CCC(N)=O)C(=O)O [Compound 8, bostrychine-B]",–,104,Migration / wound closure in scratch assay (words) (HaCaT keratinocytes): significant migration and narrowing of the scratch area; Migration / wound closure in scratch assay (words) (HaCaT keratinocytes; listed as bostrychine B): slightly higher wound closure ability
"COC1=C(N[C@H](C(=O)O)[C@@H](C)O)C[C@](O)(CO)CC1=N[C@@H](CCC(=O)O)C(=O)O [Compound 10, bostrychine-D]",85,118,–
"COC1=C(NC[C@@H](C)O)C[C@@](O)(CO)CC1=N[C@@H](CCC(=O)O)C(=O)O [Compound 11, bostrychine-E]",150,163,–
"COC1=C(NCCC(=O)O)C[C@@](O)(CO)CC1=N[C@H](C(=O)O)[C@@H](C)O [Compound 12, bostrychine-F]",200,90,–
OC[C@H]1O[C@@H](Oc2cc(O)cc(/C=C/c3ccc(O)c(O)c3)c2)[C@H](O)[C@@H](O)[C@@H]1O [E-astringin],–,–,IC50 (collagenase; [7]): 125 µM
OC[C@H]1O[C@@H](Oc2cc(O)cc(/C=C/c3ccc(O)cc3)c2)[C@H](O)[C@@H](O)[C@@H]1O [E-piceid],–,–,IC50 (collagenase; [7]): 259 µM
"O=C(O[C@@H]1Cc2c(O)cc(O)cc2O[C@@H]1c1cc(O)c(O)c(O)c1)c1cc(O)c(O)c(O)c1 [Epigallocatechingalleate, reference compound]",–,46.6,"IC50 (collagenase; used as positive control in many publications, read-out: Collagenase inhibition IC50 (published values)): ~220 µM"
"CC(C)C[C@H](NP(=O)(O)O[C@@H]1O[C@@H](C)[C@H](O)[C@@H](O)[C@H]1O)C(=O)N[C@@H](Cc1c[nH]c2ccccc12)C(=O)O [Phosphoramidon, phosphoramidon disodium salt, reference compound]",–,1.9,–
"C[C@@H]1O[C@@H](OC[C@H]2O[C@@H](Oc3c(-c4ccc(O)c(O)c4)oc4cc(O)cc(O)c4c3=O)[C@H](O)[C@@H](O)[C@@H]2O)[C@H](O)[C@H](O)[C@H]1O [Rutin, reference compound]",85,–,"Collagenase inhibition (collagenase type V [4]; at 100 µM, 1% DMSO control group set to 100% enzyme activity): 100 µM -> 52% Inhibition *"
COC1=C(NCC(C)O)C[C@](O)(CO)CC1=NCC(=O)O (stereo partly drawn) [aplysiapalythine A],–,–,Collagenase inhibition (collagenase type V [4]; [8]): good inhibition
COC1=C(NCC(=O)O)CC(O)(CO)CC1=NCCO (stereo not drawn) [asterina-330],–,–,Collagenase inhibition (collagenase type V [4]; [8]): good inhibition
COC1=C(NCC(=O)O)CC(O)(CO)CC1=NCC(=O)O (stereo not drawn) [mycosporine-2-glycine],–,–,IC50 [5]: 1610 µM
COC1=C(NCC(=O)O)C[C@@](O)(CO)CC1=O [mycosporine-glycine],–,–,Collagenase inhibition (collagenase type V [4]; [8]): very pronounced inhibition
COC1=C(NCC(=O)O)CC(O)(CO)CC1=N (stereo not drawn) [palythine],–,–,Anti-AGEs activity (pentosidine-like AGEs [1]; concentration range 1 µM to 3 mM): weakest effect
O=c1c(O)c(-c2ccc(O)c(O)c2)oc2cc(O)cc(O)c12 [quercetin],–,–,AGEs inhibition (pentosidine-like AGEs [6]): strong AGEs inhibitor
O=C1c2c(O)cc(O)cc2O[C@H](c2ccc(O)c(OC3O[C@H](CO)[C@@H](O)[C@H](O)[C@H]3O)c2)[C@H]1O (stereo partly drawn) [taxifolin 3′-O-glucopyranoside],–,–,IC50 (collagenase; [7]): 141 µM
O=C1c2c(O)cc(O)cc2OC(c2ccc(O)c(O)c2)C1O (stereo not drawn) [taxifolin],–,–,IC50 (collagenase; [7]): 193 µM

# — paper PMC7024213, “Absolute Configuration of Mycosporine-Like Amino Acids, Their Wound Healing Properties and In Vitro Anti-Aging Effects” (Marine Drugs, 2019)
